The values that follow come from patent publication US11639373B2, “Therapeutic and diagnostic agents for cancer” (TECHNISCHE UNIVERSITÄT MÜNCHEN, priority 2018, dated 2023).

Read-outs that look alike come from different tables or passages of the source. Non-standard residues stand in square brackets, D forms with d. Residues, ends and D or L forms follow the SMILES beside them. Groups on a side chain read outwards from the residue. ξ: configuration not given here. *: point of attachment. X3 = C[N+](C)(Cc1cn([C@@H](CCCNC(=N)N)C(=O)*)nn1)C[B-](F)(F)F; X2 = C[N+](C)(Cc1cn([C@@H](CCCCN)C(=O)*)nn1)C[B-](F)(F)F; DOTA = O=C(O)CN1CCN(CC(=O)O)CCN(CC(=O)*)CCN(CC(=O)O)CC1; X5 = CC(C)[C@H](C(=O)*)n1cc(C[N+](C)(C)C[B-](F)(F)F)nn1; X4 = C[N+](C)(Cc1cn(-c2ccc(C(=O)*)cc2)nn1)C[B-](F)(F)F; dTyr(3-I) = N[C@H](Cc1ccc(O)c(I)c1)C(=O)O; 2Nal = N[C@@H](Cc1ccc2ccccc2c1)C(=O)O; X1 = OCC1O[C@H](*)C(O)C(O)[C@H]1O; pS = N[C@@H](COP(=O)(O)O)C(=O)O; dNMeOrn = CN[C@H](CCCN)C(=O)O; 4Amb = NCc1ccc(C(=O)O)cc1; Mercaptoacetyl = O=C(CS)*; ξNMeOrn = CNC(CCCN)C(=O)O; 4Abz = Nc1ccc(C(=O)O)cc1; X6 = CC(=O)c1ccc(N*)cc1; Dap = NC[C@H](N)C(=O)O Where only a bound is given, the exact number is not on record here.

The target of data set [1] is T1, human CXCR4 (Homo sapiens, UniProt P61073).
T1 construct: using CXCR4 positive Jurkat human T-cell leukemia cells; endogenous in cells; host or cells: Jurkat human T-cell leukemia cells
T1 sequence (P61073 whole entry): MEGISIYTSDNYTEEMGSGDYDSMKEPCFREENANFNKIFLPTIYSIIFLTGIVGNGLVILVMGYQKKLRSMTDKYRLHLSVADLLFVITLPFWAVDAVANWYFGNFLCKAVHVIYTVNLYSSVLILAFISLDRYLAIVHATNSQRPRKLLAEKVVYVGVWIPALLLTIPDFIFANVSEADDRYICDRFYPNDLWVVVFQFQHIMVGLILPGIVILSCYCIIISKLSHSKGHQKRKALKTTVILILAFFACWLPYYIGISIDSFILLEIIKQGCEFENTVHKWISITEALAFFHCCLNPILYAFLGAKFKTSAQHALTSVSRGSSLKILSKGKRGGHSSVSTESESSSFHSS
The data set is described as follows: Competitive binding assay to human CXCR4, Jurkat cells, [125I]FC131 radioligand.

Data set [2] can be described thus: Lipophilicity, shake flask n-octanol/PBS. The following applies: Table 1d. The format is physicochemical. As for the experimental part:
To a solution of app. 0.5 MBq of radiolabeled peptide in 500 μL of PBS (pH 7.4), 500 μL of octanol were added (n=6). Vials were vortexed vigorously for 3 min. To achieve quantitative phase separation, the vials were centrifuged at 14,600×g for 6 min in a Biofuge 15 (Heraeus Sepatech, Osterode, Germany). The activity concentrations in 100 μL-samples of both the aqueous and the organic phase were measured in a γ-counter. Both the partition coefficient Pow, which is defined as the molar concentration ratio of a single species A between octanol and an aqueous phase at equilibrium, and log Pow, which is an important parameter used to characterize lipophilicity of a compound, were calculated.
Internalization and cell efflux studies of the respective ligands were performed using a previously published protocol (Poschenrieder et al., First 18F-Labeled Pentixafor-Based Imaging Agent for PET Imaging of CXCR4 Expression In Vivo. 2016). The distribution coefficients of the respective ^68Ga- and […] peptides in octanol and PBS buffer were determined applying the shake flask method as described previously (Weineisen et al., Synthesis and preclinical evaluation of DOTAGA-conjugated PSMA ligands for functional imaging and endoradiotherapy of prostate cancer. EJNMMI Research. 2014; 1:1-15).
Lipophilicity was measured using the shake flask method. The logarithm of the partition coefficient P, where P is the ratio of activity distribution of the respective ^68Ga/^177Lu-labeled peptide in n-octanol and PBS are listed in Table 2.

For data set [3], the target named is T2, murine CXCR4 (Mus musculus, UniProt P70658).
T2 construct: The murine CXCR4 expressing cell line Ep-Myc1080; endogenous in cells; host or cells: Eμ-Myc1080 mouse B-cell lymphoma cells
T2 sequence (P70658 whole entry): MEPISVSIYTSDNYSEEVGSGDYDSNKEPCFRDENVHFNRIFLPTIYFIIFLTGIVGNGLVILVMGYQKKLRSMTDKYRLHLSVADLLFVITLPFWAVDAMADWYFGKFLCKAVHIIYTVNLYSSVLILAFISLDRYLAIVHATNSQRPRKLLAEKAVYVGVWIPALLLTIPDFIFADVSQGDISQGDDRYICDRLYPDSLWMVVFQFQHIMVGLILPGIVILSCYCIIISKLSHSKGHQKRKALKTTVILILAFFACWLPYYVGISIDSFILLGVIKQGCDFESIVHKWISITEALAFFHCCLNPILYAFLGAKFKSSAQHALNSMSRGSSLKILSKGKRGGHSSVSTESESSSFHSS
Put plainly: Competitive binding assay to murine CXCR4, Eμ-Myc1080 cells, [125I]CPCR4.3 radioligand. The procedure:
Competition studies addressing the human CXCR4 were performed using CXCR4 positive Jurkat human T-cell leukemia cells and ^125I-FC131 (^125I-2), addressing the murine CXCR4, Ep-Myc1080 mouse B-cell lymphoma cells and ^125I-CPCR4.3 (Demmer et al. A Conformationally Frozen Peptoid Boosts CXCR4 Affinity and Anti-HIV Activity. Angewandte Chemie International Edition. 2012; 51:8110-8113) as the radioligand were utilized as described previously (Poschenrieder et al., The influence of different metal-chelate conjugates of pentixafor on the CXCR4 affinity. EJNMMI research. 2016; 6:1-8).

Where [4] appears, read: Table 1b, 18F-labeling precursors, Jurkat cells, [^125I]FC-131, read-out: IC50 [nM] to hCXCR4.
[5] abbreviates: Table 1d, orn side chain modifications, read-out: IC50 [nM] to hCXCR4.
[6] abbreviates: Table 1b, ^natLu metal complexes, Jurkat cells, [^125I]FC-131, read-out: IC50 [nM] to hCXCR4 [^natLu].
Setting [7] is: ^natLu complexes, Jurkat cells, [^125I]FC131 0.1 nM, RT 2 h, mean ± SD (n = 3), read-out: IC50 [nM] for ^natLu-complexes and human CXCR4.
Where [8] appears, read: Table 1b, ^natGa metal complexes, Jurkat cells, [^125I]FC-131, read-out: IC50 [nM] to hCXCR4 [^natGa].
Setting [9] is: Table 1b, ^natY metal complexes, Jurkat cells, [^125I]FC-131, read-out: IC50 [nM] to hCXCR4 [^natY].
The mark [10] stands for this setting: ^natGa complexes, Jurkat cells, [^125I]FC131 0.1 nM, RT 2 h, mean ± SD (n = 3), read-out: IC50 [nM] for ^natGa-complexes and human CXCR4.

As a reminder, the IC50 is the concentration needed to halve the response being measured. For `CN1C(=O)[C@@H](Cc2ccc(O)c(I)c2)NC(=O)CNC(=O)[C@H](Cc2ccc3ccccc3c2)NC(=O)[C@H](CCCNC(=N)N)NC(=O)[C@H]1CCCNC(=O)c1ccc(-n2cc(C[N+](C)(C)C[B-](F)(F)F)nn2)cc1` [F1, cyclo[i-yorn′(AMBF3(methyl(1H-1,2,3-triazol-4-yl)4-amino)benzoyl-)RNaIG]] (cyclo([2Nal]G[dTyr(3-I)][dNMeOrn](X4)R)), in data set [1] (setting [4]), the IC50 is 134 ± 47 nM.

For the compound `CC(C)[C@H](C(=O)NCC(=O)Nc1ccc(C(=O)NCCC[C@@H]2C(=O)N[C@@H](CCCNC(=N)N)C(=O)N[C@@H](Cc3ccc4ccccc4c3)C(=O)NCC(=O)N[C@H](Cc3ccc(O)c(I)c3)C(=O)N2C)cc1)n1cc(C[N+](C)(C)C[B-](F)(F)F)nn1` [F2, cyclo[i-yorn′(AMBF3(methyl(1H-1,2,3-triazol-4-yl)-vG-4-amino)benzoyl-)RNaIG]] (cyclo([2Nal]G[dTyr(3-I)][dNMeOrn]([4Abz-Gly-X5])R)), the IC50 in data set [1] (setting [4]) worked out at 65.2 ± 10 nM.

With `CN1C(=O)[C@@H](Cc2ccc(O)cc2)NC(=O)CNC(=O)[C@H](Cc2ccc3ccccc3c2)NC(=O)[C@H](CCCNC(=N)N)NC(=O)[C@H]1CCCNC(=O)c1ccc(NC(=O)CNC(=O)[C@H](CCCNC(=N)N)n2cc(C[N+](C)(C)C[B-](F)(F)F)nn2)cc1` [F3b, cyclo[-yorn′(AMBF3(methyl(1H-1,2,3-triazol-4-yl)-rG-4-amino)benzoyl-)RNaIG]] (cyclo([2Nal]G[dY][dNMeOrn]([4Abz-Gly-X3])R)), the IC50 in data set [1] (setting [4]) was determined as 2.4 ± 0.8 nM.

Consider `CN1C(=O)[C@@H](Cc2ccc(O)c(I)c2)NC(=O)CNC(=O)[C@H](Cc2ccc3ccccc3c2)NC(=O)[C@H](CCCNC(=N)N)NC(=O)[C@H]1CCCNC(=O)c1ccc(NC(=O)CNC(=O)[C@H](CCCCN)n2cc(C[N+](C)(C)C[B-](F)(F)F)nn2)cc1` [F4, cyclo[i-yorn′(AMBF3(methyl(1H-1,2,3-triazol-4-yl)-kG-4-amino)benzoyl-)RNaIG]] (cyclo([2Nal]G[dTyr(3-I)][dNMeOrn]([4Abz-Gly-X2])R)), for which, in data set [1] (setting [4]), the IC50 was 3.8 ± 0.9 nM.

Consider `CC(=O)c1ccc(NC(=O)[C@@H](C)NC(=O)[C@@H](CCCNC(=N)N)NC(=O)[C@@H](CNC(=O)CO/N=C\c2ccc(F)cc2)NC(=O)CCS[C@H]2OC(CO)[C@@H](O[C@@H]3OC(CO)[C@@H](O)C(O)C3O)C(O)C2O)cc1` (some centres unmarked) [F5], for which the IC50 in data set [1] (setting [5]) was 4.6 ± 0.7 nM.

Turning to `CN1C(=O)[C@H](Cc2ccc(O)c(I)c2)NC(=O)CNC(=O)[C@@H](Cc2ccc3ccccc3c2)NC(=O)[C@@H](CCCNC(=N)N)NC(=O)[C@@H]1CCCNC(=O)c1ccc(NC(=O)[C@@H](CC(=O)O)NC(=O)CN2CCN(CC(=O)O)CCN(CC(=O)O)CCN(CC(=O)O)CC2)cc1` [P1], the IC50 in data set [1] (setting [6]) and in data set [1] (setting [7]) was 106 ± 10 nM throughout.

For `CN1C(=O)[C@@H](Cc2ccc(O)c(I)c2)NC(=O)CNC(=O)[C@H](Cc2ccc3ccccc3c2)NC(=O)[C@H](CCCNC(=N)N)NC(=O)[C@H]1CCCNC(=O)c1ccc(NC(=O)CNC(=O)[C@H](CN)NC(=O)CN2CCN(CC(=O)O)CCN(CC(=O)O)CCN(CC(=O)O)CC2)cc1` [P2] (cyclo([2Nal]G[dTyr(3-I)][dNMeOrn]([4Abz-Gly-Dap-DOTA])R)), the values for the IC50 in data set [1] (setting [8]), in data set [1] (setting [9]) and in data set [1] (setting [10]) were 3.6 ± 0.7 nM, 4.1 ± 1.3 nM and 3.6 ± 0.7 nM, respectively.

As to `CN1C(=O)[C@@H](Cc2ccc(O)c(I)c2)NC(=O)CNC(=O)[C@H](Cc2ccc3ccccc3c2)NC(=O)[C@H](CCCNC(=N)N)NC(=O)C1CCCNC(=O)c1ccc(NC(=O)CNC(=O)[C@H](CCCCN)NC(=O)CN2CCN(CC(=O)O)CCN(CC(=O)O)CCN(CC(=O)O)CC2)cc1` (stereo partly drawn) [P3] (cyclo([2Nal]G[dTyr(3-I)][ξNMeOrn]([4Abz-Gly-Lys-DOTA])R)), the IC50 in data set [1] (Table 1b, ^natBi metal complexes, Jurkat cells, [^125I]FC-131, read-out: IC50 [nM] to hCXCR4 [^natBi]) was determined as 38 ± 25 nM; in data set [1] (setting [8]) it was 2.4 ± 0.1 nM; in data set [1] (setting [6]) it was 3.6 ± 1.1 nM; in data set [1] (setting [9]), 2.4 ± 0.2 nM; in data set [1] (setting [10]), 2.4 ± 0.1 nM; in data set [1] (setting [7]) it was 3.6 ± 1.1 nM.

In the case of `CN1C(=O)[C@@H](Cc2ccc(O)cc2)NC(=O)CNC(=O)[C@H](Cc2ccc3ccccc3c2)NC(=O)[C@H](CCCNC(=N)N)NC(=O)C1CCCNC(=O)c1ccc(NC(=O)CNC(=O)[C@H](CCCCN)NC(=O)CN2CCN(CC(=O)O)CCN(CC(=O)O)CCN(CC(=O)O)CC2)cc1` (stereo partly drawn) [P3b] (cyclo([2Nal]G[dY][ξNMeOrn]([4Abz-Gly-Lys-DOTA])R)), the IC50 in data set [1] (setting [8]) is 8.9 ± 3.8 nM; in data set [1] (setting [6]) it was 8 ± 3.1 nM; in data set [1] (setting [9]) it was 6.3 ± 2.5 nM; in data set [1] (setting [10]) it was 8.9 ± 3.8 nM; in data set [1] (setting [7]) it was 8 ± 3.1 nM.

With `CC(=O)c1ccc(NC(=O)[C@@H](C)NC(=O)[C@@H](CCCNC(=N)N)NC(=O)[C@@H](CO)NC(=O)[C@@H](CO)NC(=O)[C@@H](CO)NC(=O)CS)cc1` [T1] (Mercaptoacetyl-[dS][dS][dS][dR][dA]-X6), the half-inhibitory concentration (IC50) in data set [1] (setting [5]) worked out at 22.9 ± 3.9 nM.

The logP is a log measure of how a compound divides between an organic and an aqueous phase. Read a high logP as a more lipophilic compound. On to `C[C@@H](NC(=O)[C@@H](CCCNC(=N)N)NC(=O)[C@H](CC(=O)O)NC(=O)[C@H](CC(=O)O)NC(=O)[C@H](CC(=O)O)NC(=O)CS)C(=O)Nc1ccc(C(=O)O)cc1` [T2] (Mercaptoacetyl-DDD[dR][dA][4Abz]-OH), for which, in data set [1] (setting [5]), the IC50 was 85.7 ± 5.1 nM. In data set [2], the logP was −2.2.

As to `C[C@@H](NC(=O)[C@@H](CCCNC(=N)N)NC(=O)[C@H](CN)NC(=O)[C@H](CN)NC(=O)[C@H](CN)NC(=O)CS)C(=O)Nc1ccc(C(=O)O)cc1` [T3] (Mercaptoacetyl-[Dap][Dap][Dap][dR][dA][4Abz]-OH), the IC50 in data set [1] (setting [5]) is 18.8 ± 8.5 nM. In addition, the logP in data set [2] was −1.5.

As for `C[C@@H](NC(=O)[C@@H](CCCNC(=N)N)NC(=O)[C@H](CO)NC(=O)[C@H](COP(=O)(O)O)NC(=O)[C@H](CO[C@H]1OC(CO)[C@H](O)C(O)C1O)NC(=O)CS)C(=O)Nc1ccc(C(=O)O)cc1` (some centres unmarked) [T4] (Mercaptoacetyl-S(X1)[pS]S[dR][dA][4Abz]-OH), in data set [1] (setting [5]), the IC50 turned out to be 213 ± 22 nM. Moreover, in data set [2], the logP is recorded as −2.2.

For `CN1C(=O)[C@@H](Cc2ccc(O)cc2)NC(=O)CNC(=O)[C@H](Cc2ccc3ccccc3c2)NC(=O)[C@H](CCCNC(=N)N)NC(=O)[C@H]1CCCNC(=O)c1ccc(CNC(=O)CN2CCN(CC(=O)O)CCN(CC(=O)O)CCN(CC(=O)O)CC2)cc1` [compound 3, cyclo(D-Tyr^1-D-[NMe]Orn^2(AMBS-DOTA)-Arg^3-Nal^4-Gly^5), reference compound] (cyclo([dY][dNMeOrn]([4Amb-DOTA])R[2Nal]G)), in data set [3], the IC50 is > 1000 nM.

For “cyclo[i-yorn′(DOTA-ra-(4-amino)benzoyl-)RNaIG [P5]”, the “increase in affinity compared to P2” value in data set [1] (hCXCR4) is recorded as “almost two-fold”.

With “cyclo[i-yorn′([^natLu]DOTA-dapG-(4-amino)benzoyl-)RNaIG [^natLu-P2]”, the “improvement of binding affinity by insertion of cationic amino acids in the linker” value in data set [1] (hCXCR4, versus ligand with glycine linker only) is listed as “almost two-fold”.

Take “cyclo[i-yorn′([^natLu]DOTA-rG-(4-amino)benzoyl-)RNaIG [^natLu-P4]”: the “mIC50[nM] ^natLu complexes and murine CXCR4” value in data set [3] (^natLu complexes, Eμ-Myc1080 mouse B-cell lymphoma cells, [^125I]CPCR4.3, mean ± SD (n = 3)) was 37.1 ± 2.9 nM.
